# Assay results from ChEMBL document CHEMBL4811284, “Tellurides bearing benzensulfonamide as carbonic anhydrase inhibitors with potent antitumor activity” (Bioorg Med Chem Lett, 2021).
# pKi: −log10 of the molar value.
# Columns and labels:
# Carbonic anhydrase 9 = Carbonic anhydrase 9 (Homo sapiens, UniProt Q16790); experiment: Inhibition of recombinant human CA9 preincubated for 15 mins by measured for 10 to 100 secs by phenol red dye based stopped flow CO2 hydration assay
# MDA-MB-231 [1] = experiment: Cytotoxicity against human MDA-MB-231 cells assessed as cell killing at 1 uM measured under normoxic condition after 48 hrs relative to control; type: functional
# MDA-MB-231 [2] = experiment: Cytotoxicity against human MDA-MB-231 cells assessed as cell viability at 10 uM measured under normoxic condition after 48 hrs relative to control; type: functional; conditions: read-out: Activity
# MDA-MB-231 [3] = experiment: Cytotoxicity against human MDA-MB-231 cells assessed as cell viability under hypoxia conditions at 1 uM measured after 48 hrs relative to control; type: functional
# MDA-MB-231 [4] = experiment: Cytotoxicity against human MDA-MB-231 cells assessed as cell viability under hypoxia conditions at 10 uM measured after 48 hrs relative to control; type: functional
# MDA-MB-231 [5] = experiment: Cytotoxicity against human MDA-MB-231 cells assessed as cell viability at 1 uM measured under normoxic condition after 48 hrs relative to control; type: functional; conditions: read-out: Activity
# MDA-MB-231 [6] = experiment: Cytotoxicity against human MDA-MB-231 cells assessed as cell killing under hypoxia conditions at 1 uM measured after 48 hrs relative to control; type: functional
# MDA-MB-231 [7] = experiment: Cytotoxicity against human MDA-MB-231 cells assessed as cell killing under hypoxia conditions at 10 uM measured after 48 hrs relative to control; type: functional
compound,measurement,setting,value
NS(=O)(=O)c1ccc(C[Te]c2ccccc2)cc1,pKi,Carbonic anhydrase 9,8.62
same,Activity,MDA-MB-231 [1],90%
same,viability at 10 µM,MDA-MB-231 [2],5%
same,Activity,MDA-MB-231 [3],16%
same,Activity,MDA-MB-231 [4],13%
COc1cc([Te]Cc2ccc(S(N)(=O)=O)cc2)cc(OC)c1OC,pKi,Carbonic anhydrase 9,8.62
same,viability at 10 µM,MDA-MB-231 [2],3%
same,viability at 1 µM,MDA-MB-231 [5],18%
same,Activity,MDA-MB-231 [6],65%
same,Activity,MDA-MB-231 [7],85%
COc1ccc([Te]Cc2ccc(S(N)(=O)=O)cc2)cc1,pKi,Carbonic anhydrase 9,8.59
NS(=O)(=O)c1ccc(C[Te]c2ccc3ccccc3c2)cc1,pKi,Carbonic anhydrase 9,8.54
Cc1ccccc1[Te]Cc1ccc(S(N)(=O)=O)cc1,pKi,Carbonic anhydrase 9,8.59
Cc1cccc(C)c1[Te]Cc1ccc(S(N)(=O)=O)cc1,pKi,Carbonic anhydrase 9,8.60
Cc1ccc([Te]Cc2ccc(S(N)(=O)=O)cc2)cc1,pKi,Carbonic anhydrase 9,8.66
